Measurements from EP0061208A1, “Insecticidal control of ectoparasites” (JANSSEN PHARMACEUTICA N.V., priority 1981, dated 1982).

Test system: lice
Assay: in-vivo experiment: single pour-on application to louse-infested sheep, evaluation of louse infestation
Design: key: +: numphs or adults were detected; -: no live lice were found
Settings: single pour-on along the back, solution 5% by weight in 2-(Z-butoxyethoxy)ethanol; for louse infestation, weeks 1: after 1 week; for louse infestation, weeks 2: after 2 weeks; for louse infestation, weeks 3: after 3 weeks; for louse infestation, weeks 4: after 4 weeks; for louse infestation, weeks 6.5: after 6.5 weeks
Method: The efficacy of the ectoparasiticidal method and compositions of the present invention is illustrate by the following in-vivo experiment: • 4 moderately louse-infested sheep were given a single pour-on application of a solution comprising 5% by weight of cypermetrin • in 2-(Z-butoxyethoxy)ethanol. • The louse infestation was evaluated after 1, 2, 3, 4 and 6. 5 weeks. The evaluation of the louse-infestation is illustrated in table 1 wherein • + means that numphs or adults were detected, and • - means that no live lice were found.

## CC1(C)C(C=C(Cl)Cl)C1C(=O)OC(C#N)c1cccc(Oc2ccccc2)c1 (stereo not shown) [cypermetrin, [[cyano(3-phenoxyphenyl)]methyl] 2-(2,2-dichloroethenyl)-3,3-dimethylcyclopropanecarboxylate]
Dose 10 mg/kg, 10 mg/kg
  louse infestation, weeks 1: + and -
  louse infestation, weeks 2: + and -
  louse infestation, weeks 3: + and -
  louse infestation, weeks 4: + and -
Dose 10 mg/kg
  louse infestation, weeks 6.5: -
Dose 20 mg/kg
  louse infestation, weeks 1: -
  louse infestation, weeks 2: -
  louse infestation, weeks 3: -
  louse infestation, weeks 4: -
  louse infestation, weeks 6.5: -
